Laboratory results taken from PMC3750315, “The production and characterization of a new active lipase from Acremonium alcalophilum using a plant bioreactor” (Biotechnology for Biofuels, 2013).

Target: T1, LipA (Sodiomyces alcalophilus, UniProt P0CT91)
T1 construct: Transient in Nicotiana benthamiana; vector adds Pr1b signal peptide, Xpress tag, C-myc tag, KDEL (tags kept); N-glycosylated, about 56 kDa on SDS-PAGE
Assay: p-nitrophenol release, […] nm
Format: biochemical
Conditions: 100 mM phosphate buffer pH 8.0, 40°C

T1 sequence (P0CT91 23-416): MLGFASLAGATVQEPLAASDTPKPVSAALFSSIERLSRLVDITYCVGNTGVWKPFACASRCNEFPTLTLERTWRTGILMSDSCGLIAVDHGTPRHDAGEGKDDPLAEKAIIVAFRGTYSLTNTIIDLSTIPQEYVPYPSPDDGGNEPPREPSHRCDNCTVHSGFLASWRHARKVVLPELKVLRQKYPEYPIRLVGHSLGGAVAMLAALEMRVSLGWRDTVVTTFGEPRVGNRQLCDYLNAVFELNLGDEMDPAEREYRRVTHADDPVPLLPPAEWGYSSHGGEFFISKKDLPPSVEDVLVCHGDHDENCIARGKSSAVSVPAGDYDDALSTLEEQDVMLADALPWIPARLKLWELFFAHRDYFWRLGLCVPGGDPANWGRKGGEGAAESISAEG

Row | Structure (SMILES) | Km [µM]
1 | CC(=O)Oc1ccc([N+](=O)[O-])cc1 [pNP acetate (C2)] | 150
2 | CCCC(=O)Oc1ccc([N+](=O)[O-])cc1 [pNP butyrate (C4)] | 160
3 | CCCCCCCC(=O)Oc1ccc([N+](=O)[O-])cc1 [pNP caprylate (C8)] | 100
4 | CCCCCCCCCCCCCC(=O)Oc1ccc([N+](=O)[O-])cc1 [pNP myristate (C14)] | 70
5 | CCCCCCCCCCCCCCCC(=O)Oc1ccc([N+](=O)[O-])cc1 [pNP palmitate (C16)] | 100
